Experimental data reported in PMC11241769, “Comprehensive Characterization of Phytochemical Composition, Membrane Permeability, and Antiproliferative Activity of Juglans nigra Polyphenols” (International Journal of Molecular Sciences, 2024).
Where two headings read alike, the source gives them in different places.

Columns and labels:
[1] = system: MDA-MB-231 human breast adenocarcinoma cells; assay: in vitro cytostatic (antiproliferative) activity, Alamar Blue (resazurin) assay, MDA-MB 231; format: cell-based
Experimental: (§1) For the evaluation of the in vitro antiproliferative activity of the compounds, the cell viability was determined by resazurin (Alamar Blue) assay on MDA-MB 231 breast carcinoma, A2058 melanoma, and HT-29 colon carcinoma cell culture. The control wells were treated only with serum-free medium.
(§2) The cytostatic effect of the compounds was studied on tumor cell cultures in vitro. MDA-MB-231 human breast adenocarcinoma cells were cultured in DMEM medium supplemented with 10% FBS, 2 mM L-glutamine, penicillin–streptomycin antibiotics mixture (50 IU/mL, and 50 μg/mL, respectively), 1 mM sodium pyruvate, and 1% non-essential amino acid mixture. A2058 human melanoma cells, and HT-29 colorectal carcinoma cells were cultured in RPMI medium supplemented with 10% FBS, 2 mM L-glutamine, and penicillin–streptomycin antibiotics mixture (50 IU/mL and 50 μg/mL, respectively). Cell lines were generous gifts from Dr. József Tóvári (Department of Experimental Pharmacology, National Institute of Oncology, Budapest, Hungary).
(§3) All cell cultures were maintained at 37 °C in a humidified atmosphere with 5% CO2. The cells were grown to confluence and then divided into 96-well tissue culture plates with the initial cell number of 5.0 × 10^3 cells/well. […] Control cells were treated with serum-free medium or DMSO (c = 1.0 v/v %) at the same conditions. After this incubation period, cells were washed twice with serum-free medium, and following that, they were cultured for another 72 h in a 10% serum-containing medium at 37 °C. After that, cell viability was determined using the Alamar Blue assay. Alamar Blue is a non-toxic, resazurin-based dye that living cells reduce to a fluorescent molecule, resorufin [99]. Resazurin sodium salt (Merck, Darmstadt, Germany) was dissolved in PBS at c = 0.15 mg/mL, pH 7.4). A measure of 22 uL of the dye was added to each well and incubated at 37 °C for 3 h until the pink color of the reduced dye appeared. Fluorescence intensity in each well was measured using a Synergy H4 multimode microplate reader (BioTek, Winooski, VT); at λex = 530/30 and λem = 610/10 nm.
(§4) The cytostasis values were expressed in the percentage of untreated control.

[2] = system: A2058 human melanoma cells; assay: in vitro cytostatic (antiproliferative) activity, Alamar Blue (resazurin) assay, A2058; format: cell-based
Experimental: as §1, §2, §3, §4

[3] = system: HT-29 colorectal carcinoma cells; assay: in vitro cytostatic (antiproliferative) activity, Alamar Blue (resazurin) assay, HT-29; format: cell-based; conditions: Homo sapiens
Experimental: as §1, §2, §3, §4

[4] = system: Vero E6 non-tumorous kidney cells; assay: selectivity study: cytostatic activity on non-tumorous Vero E6 cells, Alamar Blue assay; format: cell-based, African green monkey (C. sabaeus)
Experimental: (§5) To determine the selectivity, we assessed the compounds on the Vero E6 non-tumorous kidney cells from African green monkeys (C. sabaeus), and their cytostatic activity was determined (Table 3).
(§6) For the selectivity study, a non-human primate cell culture was used. Vero E6 cells were established from kidney tissue sampled from an African green monkey (C. sabaeus) They originated from a primary culture initiated in March 1962 by Yoshihiro Yasumura at Chiba University in Japan. Vero E6 cells were obtained from the European Collection of Authenticated Cell Cultures (ECACC 85020206) and maintained in DMEM high-glucose (4.5 g/L) medium (Lonza, Basel, Switzerland) containing 10% FBS (Gibco, Thermo Fisher Scientific) and supplemented with 2 mM of L-glutamine (Lonza), 1 mM sodium pyruvate (Merck), and CellCultureGuard (PanReacApplichem, ITW Reagents, Darmstadt, Germany) at 37 °C in a humidified atmosphere of 5% CO2.
as §3, §4

[5] = PAMPA-BBB (parallel artificial membrane permeability assay, porcine polar brain lipid extract); format: in vitro ADME; conditions: for logPe PAMPA-BBB (n = 9): donor pH 7.4, acceptor pH 7.4, 37 °C, 4 h, n.d. = not detected in the acceptor phase; for Papp at 4 h, 100 µM: pig, PAMPA, pH 7.4, read-out: logPe PAMPA-BBB (n = 9) (converted)
Experimental: (§7) For the PAMPA-BBB test, 5 μL of porcine polar brain lipid extract (PBLE) solution (16.0 mg PBLE + 8.0 mg cholesterol dissolved in 600.0 μL n-dodecane) was applied for each well of the 96-well polycarbonate-based filter donor plates (top plate) (Multiscreen™-IP, MAIPN4510, pore size 0.45 μm; Merck). For the PAMPA-GI assay, the wells of the top plate were coated with 5 μL of the mixture of 16.0 mg phosphatidylcholine + 8.0 mg cholesterol dissolved in 600.0 μL n-dodecane. A measure of 150.0 μL of aliquots of the filtrated donor solutions were placed on the membrane. The 96-well PTFE acceptor plates (bottom plates) (Multiscreen Acceptor Plate, MSSACCEPTOR; Merck), were filled with 300.0 μL buffer solution (0.01 M PBS buffer, pH 7.4). The donor plate was placed upon the acceptor plate, and both plates were incubated together at 37 °C for 4 h in a Heidolph Titramax 1000 Vibrating platform shaker (Heidolph, Schwabach, Germany).
(§8) After incubation, sandwich plates were separated and the concentrations of each compound in the starting donor solution and in the acceptor and donor wells were determined in triplicate by UHPLC-DAD method described above. […] The effective permeability and the membrane retention in the PAMPA-BBB and the PAMPA GI experiments were calculated by Equations (4)–(7), respectively:(4) Pe=−2.303/A(t−τSS)·VA·VD/VA+VD·lg1−VA+VD/1−MR·VD×CAt/CD0 (5) Pe=−2.303/A(t−τSS)·1/1+ra·lg−ra+1+ra/1−MR×CDt/CD0 where Pe is the effective permeability coefficient (cm/s), A is the filter area (0.24 cm^2), VD and VA are the volumes in the donor (0.15 cm^3) and acceptor phases (0.30 cm^3), t is the incubation time (s), τSS is the time (s) to reach steady-state (240 s), CD(t) is the concentration (mol/cm^3) of the compound in the donor phase at time t, CD(0) is the concentration (mol/cm^3) of the compound in the donor phase at time 0, and MR is the estimated membrane retention factor (the estimated mole fraction of solute lost to the membrane), ra is the sink asymmetry ratio (gradient-pH-induced), defined as:(6) ra=VD/VA×Pe(A→D)/Pe(D→A) (7) MR=1−CDt/CD0−VA/VDCAt/CD0
(§9) All experiments were performed in three triplicates on three consecutive days (n = 9), caffeine standard was used as positive, while rutin as negative control. ClogP values were calculated by ChemAxon Marvin 22.3.

[6] = PAMPA-GI (parallel artificial membrane permeability assay, phosphatidylcholine membrane); format: in vitro ADME; conditions: for logPe PAMPA-GI (n = 9): donor pH 6.8, acceptor pH 7.4, 37 °C, 4 h, n.d. = not detected in the acceptor phase; for Papp at 4 h, 100 µM: PAMPA, read-out: logPe PAMPA-GI (n = 9) (converted)
Experimental: as §7, §8, §9

[7] = chemical stability in the aqueous solutions/buffer of the PAMPA experiments (UHPLC-DAD); conditions: PAMPA, 100 µM
Experimental: Quantities of the isolated compounds in the PAMPA experiments (14, 58, 74, 86, 92, 106, 141, and 143) were determined by UHPLC-DAD. The Juglans extracts were analyzed by an ACQUITY UPLC H-Class PLUS System equipped with a quaternary solvent delivery pump (QSM), an auto-sampler manager (FTN), a column compartment (CM), and a photodiode array (PDA) detector (Waters Corporation). An Acquity BEH C18 column (100 × 2.1 mm i.d., 1.7 µm; Waters Corporation) maintained at 30 °C was used as stationary phase. Eluent A was 0.3% acetic acid in water and eluent B was acetonitrile, the following gradient elution was applied (flow rate: 0.3 mL/min): 5.0–100.0% B (0.0–11.0 min), 100.0–5.0% B (11.0–11.5 min), 5% B (11.5–15.0 min). The injection volume was 5 µL and chromatograms were recorded at 200–400 nm. The chromatograms acquired at the UV absorption maxima of each compound were used for data evaluation.
Stock solutions (10 mM in methanol) were diluted with the defined buffer (pH 7.4 for the PAMPA-BBB and pH 6.8 for the PAMPA-GI assays) to obtain the donor solutions (composition: 594.0 μL buffer + 6.0 μL stock solution). The buffers were prepared as follows: pH = 6.8: 20.2 g Na2HPO4 ∙ 7H2O and 3.4 g NaH2PO4 ∙ H2O dissolved in distilled water to achieve the final volume of 1000.0 mL, pH adjustment with 0.5 M NaOH or 0.5 M HCl; pH = 7.4: one PBS tablet (Phosphate Buffered Saline, pH 7.4; Sigma Aldrich) dissolved in 200.0 mL distilled water. Donor solutions were filtered through Phenex-RC 15 mm, 0.2 μm syringe filters (Gen-Lab Ltd., Budapest, Hungary).

[8] = system: MDA-MB 231, A2058, HT-29 and Vero E6 cells; assay: in vitro cytostasis, Alamar Blue assay, cell lines taken together; format: cell-based; conditions: for effect on the tumor cell lines: tumor cell lines (MDA-MB 231, A2058, HT-29)
Experimental: as §1, §5, §2, §6, §3, §4

[9] = in vitro cytostatic activity, Alamar Blue (resazurin) assay, MDA-MB 231 breast carcinoma cell culture, read-out: IC50 (µM) MDA-MB 231
[10] = in vitro cytostatic activity, Alamar Blue (resazurin) assay, A2058 melanoma cell culture, read-out: IC50 (µM) A2058
[11] = in vitro cytostatic activity, Alamar Blue (resazurin) assay, HT-29 colon carcinoma cell culture, read-out: IC50 (µM) HT-29
[12] = Chlorocebus sabaeus, Vero C1008, in vitro cytostatic activity, Alamar Blue assay, Vero E6 non-tumorous kidney cells, read-out: IC50 (µM) VERO E6 Non Tumorous
[13] = MDA-MB-231, read-out: IC50 (µM) MDA-MB 231
[14] = A2058, read-out: IC50 (µM) A2058
[15] = HT-29, read-out: IC50 (µM) HT-29
[16] = Chlorocebus sabaeus, Vero C1008, read-out: IC50 (µM) VERO E6 Non Tumorous

Molecule | IC50 [1, 9] | IC50 [2, 10] | IC50 [3, 11] | IC50 [4, 12] | logPe PAMPA-BBB (n = 9) [5] | logPe PAMPA-GI (n = 9) [6] | effect on the tumor cell lines [8] | other results
O=C(O)c1cc(O)c(O)c(O)c1 [Compound 14, gallic acid] | 49.8 ± 3.5 µM | 57.2 ± 4.7 µM | 71.2 ± 7.9 µM | 49.9 ± 2.8 µM | not detected in the acceptor phase | not detected in the acceptor phase | – | –
CC1OC(Oc2c(-c3ccc(O)c(O)c3)oc3cc(O)cc(O)c3c2=O)C(O)C(O)C1O (stereo not shown) [Compound 106, quercetin-3-O-rhamnoside (quercitrin)] | – | – | – | – | not detected in the acceptor phase | not detected in the acceptor phase | no effect | IC50 ([4]; Chlorocebus sabaeus, Vero C1008, read-out: IC50 (cytostatic activity) on the Vero E6 cells): 15.9 µM
COc1cccc2c1C(=O)c1c(O)c3c(c(O)c1C2=O)C[C@@](O)(C(C)=O)C[C@@H]3O[C@H]1C[C@H](N)[C@H](O)[C@H](C)O1 [Daunomycin, daunomycin, reference compound] | – | – | – | – | – | – | – | IC50 [1, 13]: 0.7 ± 0.1 µM; IC50 [2, 14]: 0.9 ± 0.1 µM; IC50 [3, 15]: 0.2 ± 0.05 µM; IC50 [4, 16]: 1.1 ± 0.05 µM; IC50 ([8]; read-out: IC50 value (50% inhibition) in all cell lines): 0.2 to 1.1 µM
CC1OC(Oc2c(-c3ccc(O)c(O)c3)oc3cc(O)cc(O)c3c2=O)C(O)C(O)C1O (stereo not shown) [quercetin-3-O-rhamnoside (106)] | – | – | – | – | – | – | – | IC50 [1, 13]: > 100 µM; IC50 [2, 14]: > 100 µM; IC50 [3, 15]: > 100 µM; IC50 [4, 16]: 15.9 ± 0.7 µM
myricetin-3-O-rhamnoside (myricitrin) [Compound 86] | – | – | – | – | – | – | no effect | IC50 ([4]; Vero E6 non-tumorous kidney cells, selectivity, read-out: IC50 (cytostatic activity) on the Vero E6 cells): 3.7 µM

Second part, led by results:

IC50 [1, 9] | IC50 [2, 10] | IC50 [3, 11] | Molecule | IC50 [4, 12] | logPe PAMPA-BBB (n = 9) [5] | logPe PAMPA-GI (n = 9) [6] | effect on the tumor cell lines [8] | other results
> 100 µM | 102.5 ± 0.7 µM | > 100 µM | CCOC(=O)c1cc(O)c(O)c(O)c1 [Compound 58, ethyl gallate] | 82.1 ± 5.7 µM | – | – | – | inhibition at 100 µM ([2]; read-out: % inhibition at 100 µM, 100 µM, A2058 cell culture): 56.4%; Papp at 4 h, 100 µM [5]: 1.7 ×10⁻⁶ cm/s; Papp at 4 h, 100 µM [6]: 3.72 ×10⁻⁶ cm/s; additional minor compounds appeared in the aqueous solutions prepared for the PAMPA experiments [7]: < 5%
> 100 µM | > 100 µM | > 100 µM | O=C(OCC1OC(OC2CCC(=O)c3ccc(O)c(O)c32)C(O)C(O)C1O)c1cc(O)c(O)c(O)c1 [Compound 92, 1,2,3,4-tetrahydro-7,8-dihydroxy-4-oxonaphthalen-1-yl-6-O-[(3,4,5-trihydroxyphenyl)carbonyl]-β-D-glucopyranoside] | 61.1 ± 5.3 µM | not detected in the acceptor phase | not detected in the acceptor phase | no effect | –
> 100 µM | > 100 µM | > 100 µM | O=c1oc2c(O)c(O)cc3c(=O)oc4c(O)c(O)cc1c4c23 [Compound 143, ellagic acid] | > 100 µM | less than −6.0 | less than −6.0 | – | inhibition at 100 µM ([3]; read-out: % inhibition at 100 µM, 100 µM, HT-29 cell culture): 33%; IC50 ([3]; HT-29 colon carcinoma, treatment overnight, then 72 h culture, Alamar Blue, read-out: IC50 on HT-29 cell culture): 12.1 µM; IC50 (cytostatic activity) on the Vero E6 cells ([4]; Vero E6 non-tumorous kidney cells, selectivity): not cytostatic; Papp at 4 h, 100 µM [5]: 0.224 ×10⁻⁶ cm/s; Papp at 4 h, 100 µM [6]: 0.741 ×10⁻⁶ cm/s
> 100 µM | > 100 µM | > 100 µM | CC1OC(Oc2c(-c3cc(O)c(O)c(O)c3)oc3cc(O)cc(O)c3c2=O)C(O)C(O)C1O (stereo not shown) [myricetin-3-O-rhamnoside (86)] | 3.7 ± 0.7 µM | – | – | – | –
> 100 µM | > 100 µM | > 100 µM | O=c1c(OC2OCC(O)C(O)C2O)c(-c2ccc(O)c(O)c2)oc2cc(O)cc(O)c12 (stereo not shown) [quercetin-3-O-xyloside (74)] | > 100 µM | – | – | – | –
